According to PubChem BioAssay (NCI):
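Cultured in 96-well plates, cells were exposed to test compound for 48 hours across five concentrations. The concentration for 50% growth inhibition is given as GI50. TGI marks complete inhibition of growth.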

Experiments:
Experiment in all cases: NCI-60 cell line screen, 48 h
MDA-MB-231 breast = system: MDA-MB-231 breast
MOLT-4 leukemia = system: MOLT-4 leukemia
IGROV1 ovarian = system: IGROV1 ovarian
A498 renal = system: A498 renal
DU-145 prostate = system: DU-145 prostate
SK-OV-3 ovarian = system: SK-OV-3 ovarian
786-0 renal = system: 786-0 renal
MALME-3M melanoma = system: MALME-3M melanoma
MCF7 breast = system: MCF7 breast
HS 578T breast = system: HS 578T breast
HCT-116 colon = system: HCT-116 colon
NCI-H522 lung = system: NCI-H522 lung
MDA-MB-468 breast = system: MDA-MB-468 breast
CAKI-1 renal = system: CAKI-1 renal
TK-10 renal = system: TK-10 renal
BT-549 breast = system: BT-549 breast
UACC-257 melanoma = system: UACC-257 melanoma
T-47D breast = system: T-47D breast
OVCAR-3 ovarian = system: OVCAR-3 ovarian
SNB-75 CNS = system: SNB-75 CNS
K-562 leukemia = system: K-562 leukemia
SN12C renal = system: SN12C renal
U251 CNS = system: U251 CNS
COLO 205 colon = system: COLO 205 colon
SR leukemia = system: SR leukemia
HL-60(TB) leukemia = system: HL-60(TB) leukemia
HT29 colon = system: HT29 colon
A549 NSCLC = system: A549 NSCLC
CCRF-CEM leukemia = system: CCRF-CEM leukemia
EKVX NSCLC = system: EKVX NSCLC
NCI-H460 lung = system: NCI-H460 lung
SF-268 CNS = system: SF-268 CNS
KM12 colon = system: KM12 colon
OVCAR-4 ovarian = system: OVCAR-4 ovarian
UO-31 renal = system: UO-31 renal
SF-295 CNS = system: SF-295 CNS
RPMI-8226 leukemia = system: RPMI-8226 leukemia
LOX IMVI melanoma = system: LOX IMVI melanoma
HCC-2998 colon = system: HCC-2998 colon
HOP-62 NSCLC = system: HOP-62 NSCLC
HCT-15 colon = system: HCT-15 colon
ACHN renal = system: ACHN renal
HOP-92 NSCLC = system: HOP-92 NSCLC
SF-539 CNS = system: SF-539 CNS
SNB-19 CNS = system: SNB-19 CNS
SK-MEL-28 melanoma = system: SK-MEL-28 melanoma
OVCAR-8 ovarian = system: OVCAR-8 ovarian
OVCAR-5 ovarian = system: OVCAR-5 ovarian
NCI-H23 lung = system: NCI-H23 lung
MDA-MB-435 = system: MDA-MB-435
PC-3 prostate = system: PC-3 prostate
M14 melanoma = system: M14 melanoma
NCI-H226 lung = system: NCI-H226 lung
NCI/ADR-RES ovarian = system: NCI/ADR-RES ovarian
SK-MEL-2 melanoma = system: SK-MEL-2 melanoma
UACC-62 melanoma = system: UACC-62 melanoma
SK-MEL-5 melanoma = system: SK-MEL-5 melanoma
RXF 393 renal = system: RXF 393 renal
SW-620 colon = system: SW-620 colon

C=C1CCC2C3(C)COC(c4ccccc4F)OC3CCC2(C)C1CC(O)C1=CCOC1=O (stereo not drawn)
GI50 (MDA-MB-231 breast): 16.9 µM | TGI (MDA-MB-231 breast): 35.6 µM | GI50 (MOLT-4 leukemia): 40.8 µM | TGI (MOLT-4 leukemia): > 100 µM | GI50 (IGROV1 ovarian): 24.2 µM | TGI (IGROV1 ovarian): 69.1 µM | GI50 (A498 renal): 23.5 µM | TGI (A498 renal): 77.2 µM | GI50 (DU-145 prostate): 28.9 µM | TGI (DU-145 prostate): > 100 µM | GI50 (SK-OV-3 ovarian): 37.1 µM | TGI (SK-OV-3 ovarian): > 100 µM | GI50 (786-0 renal): 16.7 µM | TGI (786-0 renal): 32.8 µM | GI50 (MALME-3M melanoma): 22.5 µM | TGI (MALME-3M melanoma): 68.4 µM | GI50 (MCF7 breast): 3.48 µM | TGI (MCF7 breast): 20.2 µM | GI50 (HS 578T breast): 28.1 µM | TGI (HS 578T breast): > 100 µM | GI50 (HCT-116 colon): 4.3 µM | TGI (HCT-116 colon): 17.2 µM | GI50 (NCI-H522 lung): 6 µM | TGI (NCI-H522 lung): 21.4 µM | GI50 (MDA-MB-468 breast): 4.71 µM | TGI (MDA-MB-468 breast): 19.1 µM | GI50 (CAKI-1 renal): 25 µM | TGI (CAKI-1 renal): > 100 µM | GI50 (TK-10 renal): 34.6 µM | TGI (TK-10 renal): > 100 µM | GI50 (BT-549 breast): 5.9 µM | TGI (BT-549 breast): 22 µM | GI50 (UACC-257 melanoma): 20 µM | TGI (UACC-257 melanoma): > 100 µM | GI50 (T-47D breast): 10.7 µM | TGI (T-47D breast): > 100 µM | GI50 (OVCAR-3 ovarian): 9.68 µM | TGI (OVCAR-3 ovarian): 26.6 µM | GI50 (SNB-75 CNS): 6.89 µM | TGI (SNB-75 CNS): 26.1 µM | GI50 (K-562 leukemia): 5.7 µM | TGI (K-562 leukemia): > 100 µM | GI50 (SN12C renal): 6.14 µM | TGI (SN12C renal): 92.5 µM | GI50 (U251 CNS): 11.9 µM | TGI (U251 CNS): 24.6 µM | GI50 (COLO 205 colon): 19.3 µM | TGI (COLO 205 colon): 55.9 µM | GI50 (SR leukemia): 57.1 µM | TGI (SR leukemia): > 100 µM | GI50 (HL-60(TB) leukemia): 5.66 µM | TGI (HL-60(TB) leukemia): > 100 µM | GI50 (HT29 colon): 13.3 µM | TGI (HT29 colon): 52.6 µM | GI50 (A549 NSCLC): 24.4 µM | TGI (A549 NSCLC): > 100 µM | GI50 (CCRF-CEM leukemia): 3.08 µM | TGI (CCRF-CEM leukemia): > 100 µM | GI50 (EKVX NSCLC): 87.7 µM | TGI (EKVX NSCLC): > 100 µM | GI50 (NCI-H460 lung): 25.4 µM | TGI (NCI-H460 lung): > 100 µM | GI50 (SF-268 CNS): 28.4 µM | TGI (SF-268 CNS): > 100 µM | GI50 (KM12 colon): 17.7 µM | TGI (KM12 colon): > 100 µM | GI50 (OVCAR-4 ovarian): 13.8 µM | TGI (OVCAR-4 ovarian): 53.9 µM | GI50 (UO-31 renal): 13.4 µM | TGI (UO-31 renal): 54.1 µM | GI50 (SF-295 CNS): 15.9 µM | TGI (SF-295 CNS): 44.9 µM | GI50 (RPMI-8226 leukemia): 6.73 µM | TGI (RPMI-8226 leukemia): > 100 µM | GI50 (LOX IMVI melanoma): 11.1 µM | TGI (LOX IMVI melanoma): 23.1 µM | GI50 (HCC-2998 colon): 25.3 µM | TGI (HCC-2998 colon): > 100 µM | GI50 (HOP-62 NSCLC): 23 µM | TGI (HOP-62 NSCLC): 42.4 µM | GI50 (HCT-15 colon): 9.51 µM | TGI (HCT-15 colon): 33.5 µM | GI50 (ACHN renal): 13.4 µM | TGI (ACHN renal): 26.2 µM | GI50 (HOP-92 NSCLC): 18.1 µM | TGI (HOP-92 NSCLC): 45.4 µM | GI50 (SF-539 CNS): 14.9 µM | TGI (SF-539 CNS): 28.3 µM | GI50 (SNB-19 CNS): 33.1 µM | TGI (SNB-19 CNS): > 100 µM | GI50 (SK-MEL-28 melanoma): 26.4 µM | TGI (SK-MEL-28 melanoma): > 100 µM | GI50 (OVCAR-8 ovarian): 4.86 µM | TGI (OVCAR-8 ovarian): 19.2 µM | GI50 (OVCAR-5 ovarian): 16.3 µM | TGI (OVCAR-5 ovarian): 50.8 µM | GI50 (NCI-H23 lung): 23.6 µM | TGI (NCI-H23 lung): 73.9 µM | GI50 (MDA-MB-435): 12.6 µM | TGI (MDA-MB-435): 46.9 µM | GI50 (PC-3 prostate): 18.2 µM | TGI (PC-3 prostate): > 100 µM | GI50 (M14 melanoma): 30 µM | TGI (M14 melanoma): > 100 µM | GI50 (NCI-H226 lung): 5.74 µM | TGI (NCI-H226 lung): 22.7 µM | GI50 (NCI/ADR-RES ovarian): 8.93 µM | TGI (NCI/ADR-RES ovarian): 25.3 µM | GI50 (SK-MEL-2 melanoma): 14.6 µM | TGI (SK-MEL-2 melanoma): 29.1 µM | GI50 (UACC-62 melanoma): 15.9 µM | TGI (UACC-62 melanoma): 46 µM | GI50 (SK-MEL-5 melanoma): 17.1 µM | TGI (SK-MEL-5 melanoma): 39.4 µM | GI50 (RXF 393 renal): 14.1 µM | TGI (RXF 393 renal): 30.9 µM | GI50 (SW-620 colon): 2.1 µM | TGI (SW-620 colon): 11.4 µM
